Data published in patent US20130109682A1, “CYCLIC ETHER COMPOUNDS USEFUL AS KINASE INHIBITORS” (NOVARTIS AG, priority 2010, published 2013).

How the values were obtained:
PIM1 = PIM1 (Homo sapiens, UniProt P11309); test: KinaseGlo Pim1 ATP depletion assay; type: biochemical
Procedure, shortened: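 IC50 is derived from residual ATP measured by KinaseGlo Plus luminescence once about half the ATP was consumed. Final conditions were 20 μM ATP, 40 μM BAD peptide and 2.5 nM kinase in HEPES pH 7.5 buffer with MgCl2, DTT and BSA, plus 2.5% DMSO. Compound and enzyme were premixed 15 min before ATP addition.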

PIM2 = PIM2 (Homo sapiens, UniProt Q9P1W9); test: KinaseGlo Pim2 ATP depletion assay; type: biochemical
Procedure, shortened: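 Compound sat 15 min with enzyme and BAD peptide before ATP was added; final levels 5 nM PIM2, 10 μM peptide, 4 μM ATP, 2.5% DMSO, pH 7.5 HEPES buffer with MgCl2, DTT, BSA. Stopped near 50% ATP consumption; remaining ATP measured by luciferase luminescence.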

PIM3 = PIM3 (Homo sapiens, UniProt Q86V86); test: KinaseGlo Pim3 ATP depletion assay; type: biochemical
Procedure, shortened: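 Residual ATP was detected by luciferase luminescence once about half had been consumed. The reaction contained 5 nM enzyme, 100 μM BAD peptide (RSRHSSYPAGT) and 40 μM ATP in 50 mM HEPES pH 7.5, 5 mM MgCl2, 1 mM DTT and 0.05% BSA with 2.5% DMSO. Compound and enzyme/peptide were premixed 15 min before ATP.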

GSK3β = GSK3β (Homo sapiens, UniProt P49841); test: GSK3β ATP depletion assay; type: biochemical; details: read-out: GSK3b IC50
Procedure, shortened: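 Kinase activity is read as ATP consumption: luciferase luminescence reports the ATP remaining once roughly half of the 2 μM ATP is used. Reaction mix: 5 nM GSK3β, 10 μM b-CREB peptide, 50 mM Tris pH 7.5, 15 mM MgCl2, 1 mM DTT, 0.1% BSA, 2.5% DMSO. Enzyme and peptide are preincubated 15 min before ATP is added.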

[1] = system: KMS11 (human myeloma cell line); test: Cell proliferation assay (CellTiter-Glo), KMS11; type: cell-based; details: Homo sapiens, KMS-11; KMS11-Luc cells
Procedure, shortened: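 EC50 derived from CellTiter-Glo luminescence after 3-day exposure at 37° C. Compound was diluted to 2× in medium and added to an equal volume of cells. KMS11 myeloma cells were plated on assay day at 2000/well in IMDM with 10% FBS and sodium pyruvate.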

hERG = molecular target: T1, hERG (Homo sapiens, UniProt Q12809); test: hERG binding assay ([3H] dofetilide displacement); details: dofetilide displacement; read-out: HERGdof IC50
T1 construct: host or cells: crude membrane suspension
Method: Compounds of the invention were pipetted into each well of pre-wet 96-well Millipore GF/C filter plates (#MSFCN6B50): 119 μl assay buffer, 1 μl test compound in 100% DMSO (or 100% DMSO only for total binding), 40 μl [3H] dofetilide (12.5 nM, final concentration 2.5 nM; Novartis radioisotope laboratory, East Hanover, N.J., USA, specific activity 15-45 Ci/mmol); 40 μl crude membrane suspension (ca. 15 μg protein). The final concentration of DMSO during the incubation was 0.5%. Incubations were performed at room temperature for 90 min. Non-specific binding (NSB) was defined as the binding remaining in the presence of 25 μM terfenadine (Sigma T9652). The incubations were terminated by rapid filtration on a Millipore filtration manifold, followed by three washes of 200 μA ice-cold assay buffer. The plates were left to dry overnight before adding 40 μA scintillant (MicroScint-20). The plates were then sealed (Sealing Tape SI, Nunc 236366) and read in a Wallac MicroBeta Trilux beta-counter for 1.5 min per well. Compounds were tested as 9-concentration response curves in duplicate, ranging from 30 μM to 3 nM in 1:3 dilution steps. Dilution curves were prepared in 100% DMSO. The reference compound (terfenadine) was tested as an eight-concentration response curve, ranging from 10 μM to 0.6 nM in 1:4 dilution steps.

GSK3β, sequence (P49841 whole entry, species assumed): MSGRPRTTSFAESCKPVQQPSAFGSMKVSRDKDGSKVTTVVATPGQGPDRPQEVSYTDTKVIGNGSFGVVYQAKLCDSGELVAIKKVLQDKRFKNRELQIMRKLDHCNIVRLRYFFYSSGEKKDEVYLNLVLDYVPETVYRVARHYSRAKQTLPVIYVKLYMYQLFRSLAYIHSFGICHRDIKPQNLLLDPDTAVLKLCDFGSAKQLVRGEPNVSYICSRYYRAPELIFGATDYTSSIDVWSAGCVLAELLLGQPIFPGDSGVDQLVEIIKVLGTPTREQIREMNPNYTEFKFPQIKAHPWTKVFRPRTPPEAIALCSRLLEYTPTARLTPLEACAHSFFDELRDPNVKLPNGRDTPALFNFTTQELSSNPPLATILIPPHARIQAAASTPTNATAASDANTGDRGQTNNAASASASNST
T1 sequence (Q12809 whole entry): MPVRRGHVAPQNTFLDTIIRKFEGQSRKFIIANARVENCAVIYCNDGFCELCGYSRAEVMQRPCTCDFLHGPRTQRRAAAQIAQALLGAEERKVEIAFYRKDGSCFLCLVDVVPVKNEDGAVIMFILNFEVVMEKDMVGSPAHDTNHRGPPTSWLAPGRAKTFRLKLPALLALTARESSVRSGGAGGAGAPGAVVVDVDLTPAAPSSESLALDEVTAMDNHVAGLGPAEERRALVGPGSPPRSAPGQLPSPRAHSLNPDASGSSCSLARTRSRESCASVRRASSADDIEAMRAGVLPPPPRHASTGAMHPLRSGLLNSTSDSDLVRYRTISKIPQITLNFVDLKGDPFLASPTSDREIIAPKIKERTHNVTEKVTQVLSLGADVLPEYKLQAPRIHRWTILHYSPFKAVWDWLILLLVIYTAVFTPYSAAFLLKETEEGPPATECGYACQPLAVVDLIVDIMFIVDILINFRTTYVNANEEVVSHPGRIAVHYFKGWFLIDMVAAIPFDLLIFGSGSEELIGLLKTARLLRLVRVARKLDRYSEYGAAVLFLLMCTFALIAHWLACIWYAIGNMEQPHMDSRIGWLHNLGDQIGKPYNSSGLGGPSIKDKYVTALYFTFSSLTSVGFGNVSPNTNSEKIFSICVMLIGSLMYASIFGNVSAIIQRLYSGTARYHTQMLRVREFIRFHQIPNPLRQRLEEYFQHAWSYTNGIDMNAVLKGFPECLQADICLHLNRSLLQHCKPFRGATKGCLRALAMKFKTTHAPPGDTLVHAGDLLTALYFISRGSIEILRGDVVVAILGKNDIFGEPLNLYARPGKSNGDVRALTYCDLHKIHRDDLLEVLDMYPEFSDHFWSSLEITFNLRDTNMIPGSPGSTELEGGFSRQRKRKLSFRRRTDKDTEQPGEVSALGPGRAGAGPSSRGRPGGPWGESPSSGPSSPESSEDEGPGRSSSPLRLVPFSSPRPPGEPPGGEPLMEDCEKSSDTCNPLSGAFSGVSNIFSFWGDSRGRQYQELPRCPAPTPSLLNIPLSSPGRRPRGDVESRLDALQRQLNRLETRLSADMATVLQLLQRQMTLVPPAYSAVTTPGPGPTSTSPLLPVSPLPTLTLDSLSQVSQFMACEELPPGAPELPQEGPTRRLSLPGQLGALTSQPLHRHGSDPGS
PIM1, sequence (P11309 whole entry): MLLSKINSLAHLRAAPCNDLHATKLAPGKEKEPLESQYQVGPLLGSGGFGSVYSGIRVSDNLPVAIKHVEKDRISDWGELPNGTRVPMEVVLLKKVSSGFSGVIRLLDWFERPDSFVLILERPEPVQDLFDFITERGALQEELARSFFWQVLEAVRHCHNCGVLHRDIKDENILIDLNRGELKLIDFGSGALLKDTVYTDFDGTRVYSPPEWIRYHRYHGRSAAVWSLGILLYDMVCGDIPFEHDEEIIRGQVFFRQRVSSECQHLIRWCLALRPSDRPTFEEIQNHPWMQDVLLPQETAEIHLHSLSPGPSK
PIM2, sequence (Q9P1W9 whole entry): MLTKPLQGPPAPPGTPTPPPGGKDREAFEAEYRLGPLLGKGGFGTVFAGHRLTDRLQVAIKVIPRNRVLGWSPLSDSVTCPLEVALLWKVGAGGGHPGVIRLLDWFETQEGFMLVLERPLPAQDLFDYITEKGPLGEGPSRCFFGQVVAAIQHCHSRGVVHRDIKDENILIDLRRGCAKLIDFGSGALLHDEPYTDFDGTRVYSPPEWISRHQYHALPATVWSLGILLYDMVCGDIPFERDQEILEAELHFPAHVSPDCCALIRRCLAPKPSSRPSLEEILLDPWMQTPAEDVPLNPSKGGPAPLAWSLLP

IC50 (PIM1) [nM] | IC50 (PIM2) [nM] | IC50 (PIM3) [nM] | IC50 (GSK3β) [nM] | EC50 [1] [nM] | Structure (SMILES) | IC50 (hERG) [nM]
1 | 5 | 2 | 3400 | 1600 | C[C@H]1C[C@@H](N)C[C@@H](c2ccncc2NC(=O)c2ccc(F)c(-c3c(F)cccc3F)n2)O1 [Example 124, N-(4-((2S,4R,6S)-4-amino-6-methyltetrahydro-2H-pyran-2-yl)pyridin-3-yl)-6-(2,6-difluorophenyl)-5-fluoropicolinamide] | 3000
2 | 147 | 13 | 361 | > 10000 | O=C(Nc1cnccc1[C@H]1C[C@@H](O)CCO1)c1ccc(F)c(-c2c(F)cccc2F)n1 [Example 129, 6-(2,6-difluorophenyl)-5-fluoro-N-(4-((2R,4S)-4-hydroxytetrahydro-2H-pyran-2-yl)pyridin-3-yl)picolinamide] | > 30000
